Several values for one entry are separate records, joined by “and”; a condition that tells them apart may be missing. Identical values can stand only once. Inconclusive results and toxic doses are left out.
Tested on: L1210 leukemia ip in BDF1 mice, survival T/C
Assay: NCI In Vivo Anticancer Drug Screen. Data for tumor model L1210 Leukemia (intraperitoneal) in B6D2F1 (BDF1) mice
Conditions: endpoint: mean survival time, higher = longer survival
How it was run: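 In this screen, tumor-bearing mice given compound are compared to those given vehicle, and their survival values are reported as a treated-to-control quotient.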

[1] = dose: 100.0 mg/kg/injection, schedule: Q01DX009 (ip), vehicle: saline
[2] = dose: 200.0 mg/kg/injection, schedule: Q01DX009 (ip), vehicle: saline
[3] = dose: 400.0 mg/kg/injection, schedule: Q01DX009 (ip), vehicle: saline
[4] = dose: 100.0 mg/kg/injection, schedule: Q04DX002 (ip), vehicle: Klucel (hydroxypropylcellulose) (HPC)
[5] = dose: 12.5 mg/kg/injection, schedule: Q01DX005 (ip), vehicle: saline
[6] = dose: 50.0 mg/kg/injection, schedule: Q01DX005 (ip), vehicle: saline
[7] = dose: 50.0 mg/kg/injection, schedule: Q01DX009 (ip), vehicle: saline
[8] = dose: 50.0 mg/kg/injection, schedule: Q01DX001 (ip), vehicle: carboxymethylcellulose (CMC)
[9] = dose: 100.0 mg/kg/injection, schedule: Q01DX001 (ip), vehicle: carboxymethylcellulose (CMC)
[10] = dose: 200.0 mg/kg/injection, schedule: Q01DX001 (ip), vehicle: carboxymethylcellulose (CMC)
[11] = dose: 400.0 mg/kg/injection, schedule: Q01DX001 (ip), vehicle: carboxymethylcellulose (CMC)
[12] = dose: 100.0 mg/kg/injection, schedule: Q01DX001 (ip), vehicle: saline
[13] = dose: 200.0 mg/kg/injection, schedule: Q01DX001 (ip), vehicle: saline
[14] = dose: 400.0 mg/kg/injection, schedule: Q01DX001 (ip), vehicle: saline
[15] = dose: 12.5 mg/kg/injection, schedule: Q04DX002 (ip), vehicle: saline with Tween-80
[16] = dose: 25.0 mg/kg/injection, schedule: Q04DX002 (ip), vehicle: saline with Tween-80
[17] = dose: 50.0 mg/kg/injection, schedule: Q01DX009 (ip), vehicle: saline with Tween-80
[18] = dose: 100.0 mg/kg/injection, schedule: Q04DX003 (ip), vehicle: saline
[19] = dose: 50.0 mg/kg/injection, schedule: Q01DX001 (ip), vehicle: saline
[20] = dose: 100.0 mg/kg/injection, schedule: Q01DX009 (ip), vehicle: Klucel (hydroxypropylcellulose) (HPC)
[21] = dose: 100.0 mg/kg/injection, schedule: Q01DX009 (ip), vehicle: saline with Tween-80
[22] = dose: 200.0 mg/kg/injection, schedule: Q01DX009 (ip), vehicle: saline with Tween-80
[23] = dose: 100.0 mg/kg/injection, schedule: Q04DX003 (ip), vehicle: Klucel (hydroxypropylcellulose) (HPC)
[24] = dose: 200.0 mg/kg/injection, schedule: Q01DX009 (ip), vehicle: Klucel (hydroxypropylcellulose) (HPC)
[25] = dose: 200.0 mg/kg/injection, schedule: Q04DX003 (ip), vehicle: Klucel (hydroxypropylcellulose) (HPC)
[26] = dose: 400.0 mg/kg/injection, schedule: Q01DX009 (ip), vehicle: Klucel (hydroxypropylcellulose) (HPC)
[27] = dose: 400.0 mg/kg/injection, schedule: Q01DX009 (ip), vehicle: saline with Tween-80
[28] = dose: 400.0 mg/kg/injection, schedule: Q04DX003 (ip), vehicle: Klucel (hydroxypropylcellulose) (HPC)

COC1OC2COC(c3ccccc3)OC2C(OC(C)=O)C1OS(=O)(=O)c1ccc(C)cc1 (stereo not drawn)
T/C [4]: 109 % of control
T/C (dose: 200.0 mg/kg/injection, schedule: Q04DX002 (ip), vehicle: Klucel (hydroxypropylcellulose) (HPC)): 88 % of control
T/C (dose: 400.0 mg/kg/injection, schedule: Q04DX002 (ip), vehicle: Klucel (hydroxypropylcellulose) (HPC)): 109 % of control

C[Se]c1ncnc2c1c(C#N)cn2C1OC(CO)C(O)C1O (stereo not drawn)
T/C [5]: 123 % of control
T/C (dose: 12.5 mg/kg/injection, schedule: Q01DX009 (ip), vehicle: saline): 120 % of control
T/C (dose: 25.0 mg/kg/injection, schedule: Q01DX009 (ip), vehicle: saline): 124 % of control
T/C [6]: 120 % of control
T/C [7]: 94 % of control

Cn1c(=O)c2c(nc(CCC3CCCC3)n2C)n(C)c1=O
T/C [8]: 92 % of control
T/C [9]: 97 % of control
T/C [10]: 90 % of control
T/C [11]: 97 % of control

CC(=O)OCC1OC(Sc2cccc3ccccc23)C(OC(C)=O)C(OC(C)=O)C1OC(C)=O (stereo not drawn)
T/C [12]: 104 % of control
T/C [13]: 93 % of control
T/C [14]: 98 % of control

CCCCC(C#N)C1CC=CC(C(=O)O)C1 (stereo not drawn)
T/C [9]: 101 % of control
T/C [10]: 92 % of control
T/C [11]: 97 % of control

CC(=O)C(CN(C)C)c1ccccc1 (stereo not drawn)
T/C (dose: 12.5 mg/kg/injection, schedule: Q01DX009 (ip), vehicle: saline with Tween-80): 91 % of control
T/C [15]: 102 % of control
T/C (dose: 25.0 mg/kg/injection, schedule: Q01DX009 (ip), vehicle: saline with Tween-80): 98 % of control
T/C [16]: 102 % of control
T/C [17]: 89 % of control
T/C [7]: 103 % of control
T/C (dose: 50.0 mg/kg/injection, schedule: Q04DX002 (ip), vehicle: saline with Tween-80): 109 % of control
T/C [2]: 90 % of control

CCC(CC)N=C(N)N
T/C [18]: 93 % of control

OCC1OC(n2cnc3c(=S)nc(NO)[nH]c32)C(O)C1O (stereo not drawn)
T/C [5]: 165 % of control
T/C [6]: 88 % of control
T/C (dose: 100.0 mg/kg/injection, schedule: Q01DX005 (ip), vehicle: saline): 107 % of control

O=C(O)c1ccc(Br)c2ccccc12
T/C (dose: 75.0 mg/kg/injection, schedule: Q01DX001 (ip), vehicle: carboxymethylcellulose (CMC)): 95 % of control
T/C (dose: 150.0 mg/kg/injection, schedule: Q01DX001 (ip), vehicle: carboxymethylcellulose (CMC)): 98 % of control

COc1ccc2c(c1)Cc1c-2nc2ccccc2c1Cl
T/C [19]: 101 % of control
T/C [12]: 93 % of control
T/C [13]: 96 % of control
T/C [14]: 100 % of control

O=CC(CCN1CCCCC1)(CCN1CCCCC1)c1cccc2ccccc12
T/C (dose: 25.0 mg/kg/injection, schedule: Q04DX002 (ip), vehicle: Klucel (hydroxypropylcellulose) (HPC)): 107 % of control
T/C (dose: 50.0 mg/kg/injection, schedule: Q04DX002 (ip), vehicle: Klucel (hydroxypropylcellulose) (HPC)): 100 % of control
T/C [20]: 105 % of control
T/C [4]: 98 % of control

COC1OCC2OC(C)(C)OC2C1OS(=O)(=O)c1ccc([N+](=O)[O-])cc1 (stereo not drawn)
T/C [9]: 95 % of control
T/C [10]: 95 % of control
T/C [11]: 101 % of control

CCOc1ccc(Nc2cccc(O)c2)cc1
T/C [17]: 95 % of control
T/C [21]: 103 % of control
T/C [22]: 95 % of control

CCCCCCC(C)NCC(C)O (stereo not drawn)
T/C (dose: 75.0 mg/kg/injection, schedule: Q01DX001 (ip), vehicle: acid diluted with saline): 96 % of control

ClCCN(CCCl)c1ccc(C=Nc2ccc(-n3ccnc3)cc2)c(Cl)c1
T/C (dose: 80.0 mg/kg/injection, schedule: Q04DX002 (ip), vehicle: Klucel (hydroxypropylcellulose) (HPC)): 95 % of control
T/C (dose: 160.0 mg/kg/injection, schedule: Q04DX002 (ip), vehicle: Klucel (hydroxypropylcellulose) (HPC)): 102 % of control
T/C (dose: 320.0 mg/kg/injection, schedule: Q04DX002 (ip), vehicle: Klucel (hydroxypropylcellulose) (HPC)): 98 % of control

CC1C=CC(C)C(C(=O)c2ccccc2)C1C(=O)c1ccccc1 (stereo not drawn)
T/C [20]: 93 % of control
T/C [21]: 106 % of control
T/C [23]: 89 % of control
T/C [24]: 94 % of control
T/C [22]: 97 % of control
T/C [25]: 88 % of control
T/C [26]: 92 % of control
T/C [27]: 93 % of control
T/C [28]: 88 % of control

CC(=O)Nc1ccc(OCCOC(=O)Nc2c(C)cccc2C)cc1
T/C [21]: 87 % of control
T/C [22]: 92 % of control
T/C [27]: 94 % of control

CN(CCC#N)c1ccc(/C=C(\C#N)c2ccc(Br)cc2)cc1
T/C [20]: 94 % of control
T/C [24]: 94 % of control
T/C [26]: 96 % of control

c1c(NC2=NCCO2)cc2c3c1CCCN3CCC2
T/C [7]: 95 % of control

NC(=O)Cc1csc2ccccc12
T/C [12]: 101 % of control
T/C [13]: 106 % of control

Nc1nc(N)c(N=O)c(Nc2ccc(O)cc2)n1
T/C [23]: 103 % of control
T/C (dose: 200.0 mg/kg/injection, schedule: Q01DX Z (ip), vehicle: methylcellulose (MC)): 91 % of control
T/C [25]: 97 % of control
T/C [28]: 100 % of control

Nc1cc(N)ncn1
T/C (dose: 25.0 mg/kg/injection, schedule: Q01DX009 (ip), vehicle: Klucel (hydroxypropylcellulose) (HPC)): 101 % of control
T/C (dose: 50.0 mg/kg/injection, schedule: Q01DX009 (ip), vehicle: Klucel (hydroxypropylcellulose) (HPC)): 98 % of control
T/C [20]: 102 % of control

OCC1(CO)COC2(CCCC2)N1
T/C [19]: 101 % of control
T/C [12]: 97 % of control
T/C [13]: 95 % of control
T/C [14]: 103 % of control

O=S1(=O)CC(O)C1
T/C [19]: 91 % of control
T/C [12]: 100 % of control
T/C [13]: 94 % of control
T/C [14]: 105 % of control

O=C(/C(Br)=C/c1ccccc1)c1ccccc1
T/C (dose: 50.0 mg/kg/injection, schedule: Q01DX009 (ip), vehicle: other): 103 % of control
T/C (dose: 100.0 mg/kg/injection, schedule: Q01DX009 (ip), vehicle: other): 105 % of control
T/C (dose: 200.0 mg/kg/injection, schedule: Q01DX009 (ip), vehicle: other): 100 % of control

CSc1nc(N)nc2c1nnn2C1OC(CO)C(O)C1O (stereo not drawn)
T/C [12]: 105 % of control
T/C [13]: 105 % of control

N#CCCC(=O)c1ccccn1
T/C [24]: 100 % of control
T/C [26]: 93 % of control

CCOC(=O)N1CCCCC1
T/C [8]: 95 % of control
T/C [9]: 95 % of control
T/C [10]: 101 % of control and 93 % of control
T/C [11]: 104 % of control and 90 % of control

Nc1cnc([S][Sn]([c]2ccccc2)([c]2ccccc2)[c]2ccccc2)s1
T/C (dose: 6.25 mg/kg/injection, schedule: Q04DX002 (ip), vehicle: saline with Tween-80): 101 % of control
T/C [15]: 96 % of control
T/C [16]: 104 % of control

C(=Nc1cccnc1)c1c[nH]c2ccccc12
T/C [20]: 95 % of control
T/C [24]: 86 % of control
T/C [26]: 89 % of control

CNS(=O)(=O)c1ccc(Cl)cc1
T/C [12]: 95 % of control
T/C [21]: 118 % of control
T/C [1]: 98 % of control
T/C [13]: 101 % of control
T/C [22]: 94 % of control
T/C [14]: 96 % of control

CCOCCC(O)CC (stereo not drawn)
T/C [1]: 98 % of control
T/C [18]: 90 % of control
T/C [2]: 98 % of control
T/C (dose: 200.0 mg/kg/injection, schedule: Q04DX003 (ip), vehicle: saline): 88 % of control
T/C [3]: 98 % of control
T/C (dose: 400.0 mg/kg/injection, schedule: Q04DX003 (ip), vehicle: saline): 89 % of control

O=C(c1ccccc1[N+](=O)[O-])N(O)c1ccc(/C=C/c2ccccc2)cc1
T/C [9]: 93 % of control
T/C [10]: 95 % of control
T/C [11]: 95 % of control

Reference: PubChem BioAssay AID248 (DTP/NCI, 2004)
